Experimental data reported in ChEMBL document CHEMBL4507328, “Data for DCP probe BAY-390” (2021).
Blank lines part the entries; values can stand above or below the compound they belong to. The source made the active and inactive calls. No cut-off for these calls is given here.

Assays:
[1] = target: Purinergic P2Y (Rattus norvegicus) (UniProt O35811+Q9EPX4+P49651+Q63371+P41232+O35881+Q6GUG4); conditions: Compound concentration 10.0 uM
[2] = target: Growth hormone secretagogue receptor type 1 (Homo sapiens) (UniProt Q92847); conditions: Compound concentration 10.0 uM
Estrogen receptor = Estrogen receptor (Homo sapiens, UniProt P03372); experiment: Inhibition of Estrogen ERalpha at compound concentration of 10.0 uM in the Eurofins-Panlabs radioligand binding assay (Eurofins_assay_226010); set-up: ligand concentration 0.5 nM, non-specific ligand with concentration 1 uM Diethylstilbestrol, incubation time 2 h, incubation temperature 25 C
Chain of Estrogen receptor (P03372 whole entry): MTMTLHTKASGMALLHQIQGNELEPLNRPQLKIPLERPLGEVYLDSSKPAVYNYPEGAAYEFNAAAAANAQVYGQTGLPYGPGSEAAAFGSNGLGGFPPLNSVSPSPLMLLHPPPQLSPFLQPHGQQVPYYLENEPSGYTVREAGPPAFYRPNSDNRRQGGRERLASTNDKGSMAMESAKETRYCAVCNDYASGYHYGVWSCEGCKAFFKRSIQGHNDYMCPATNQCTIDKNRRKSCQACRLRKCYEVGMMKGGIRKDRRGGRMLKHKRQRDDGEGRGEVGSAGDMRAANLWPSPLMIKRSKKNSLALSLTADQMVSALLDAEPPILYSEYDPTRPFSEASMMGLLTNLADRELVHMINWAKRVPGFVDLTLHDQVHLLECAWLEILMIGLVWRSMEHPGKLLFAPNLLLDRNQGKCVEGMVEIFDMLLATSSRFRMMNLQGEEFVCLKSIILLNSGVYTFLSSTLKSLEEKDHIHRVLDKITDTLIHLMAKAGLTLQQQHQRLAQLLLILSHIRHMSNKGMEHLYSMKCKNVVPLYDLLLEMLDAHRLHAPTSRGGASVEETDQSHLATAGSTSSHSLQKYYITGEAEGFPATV

[3] = target: Delta-type opioid receptor (Homo sapiens) (UniProt P41143); conditions: Compound concentration 10.0 uM
[4] = target: Endothelin receptor type B (Homo sapiens) (UniProt P24530); conditions: Compound concentration 10.0 uM
Chain of Endothelin receptor type B (Homo sapiens) (P24530 whole entry): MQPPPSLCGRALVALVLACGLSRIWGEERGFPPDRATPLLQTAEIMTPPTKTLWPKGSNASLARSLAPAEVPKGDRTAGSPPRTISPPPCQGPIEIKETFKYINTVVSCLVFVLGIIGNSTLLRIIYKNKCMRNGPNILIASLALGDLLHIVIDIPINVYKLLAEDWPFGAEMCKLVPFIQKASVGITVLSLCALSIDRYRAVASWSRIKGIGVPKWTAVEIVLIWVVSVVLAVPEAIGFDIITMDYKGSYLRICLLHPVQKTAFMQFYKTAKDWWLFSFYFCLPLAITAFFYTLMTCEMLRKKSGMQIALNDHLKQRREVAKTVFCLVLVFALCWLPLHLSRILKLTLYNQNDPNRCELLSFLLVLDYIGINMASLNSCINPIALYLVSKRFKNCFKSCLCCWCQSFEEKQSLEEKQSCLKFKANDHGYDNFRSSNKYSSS

[5] = target: 5-hydroxytryptamine receptor 5A (Homo sapiens) (UniProt P47898); conditions: Compound concentration 10.0 uM
[6] = target: Alpha-2A adrenergic receptor (Homo sapiens) (UniProt P08913); conditions: Compound concentration 10.0 uM
[7] = target: Motilin receptor (Homo sapiens) (UniProt O43193); conditions: Compound concentration 10.0 uM
Chain of Motilin receptor (Homo sapiens) (O43193 whole entry): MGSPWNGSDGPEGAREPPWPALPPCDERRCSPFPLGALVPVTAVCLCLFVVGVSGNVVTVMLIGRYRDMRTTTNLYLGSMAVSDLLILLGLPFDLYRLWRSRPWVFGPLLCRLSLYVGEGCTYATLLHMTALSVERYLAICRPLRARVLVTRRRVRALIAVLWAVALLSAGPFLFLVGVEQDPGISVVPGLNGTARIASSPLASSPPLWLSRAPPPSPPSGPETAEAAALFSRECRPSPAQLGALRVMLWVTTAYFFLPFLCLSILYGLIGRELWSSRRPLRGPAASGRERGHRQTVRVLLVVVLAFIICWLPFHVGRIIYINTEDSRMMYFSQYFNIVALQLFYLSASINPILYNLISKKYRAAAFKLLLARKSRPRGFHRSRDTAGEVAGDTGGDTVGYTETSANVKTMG

[8] = target: T1, Alpha-1A adrenergic receptor (Homo sapiens) (UniProt P35348); conditions: Rattus norvegicus; Compound concentration 10.0 uM
T1 sequence (whole entry): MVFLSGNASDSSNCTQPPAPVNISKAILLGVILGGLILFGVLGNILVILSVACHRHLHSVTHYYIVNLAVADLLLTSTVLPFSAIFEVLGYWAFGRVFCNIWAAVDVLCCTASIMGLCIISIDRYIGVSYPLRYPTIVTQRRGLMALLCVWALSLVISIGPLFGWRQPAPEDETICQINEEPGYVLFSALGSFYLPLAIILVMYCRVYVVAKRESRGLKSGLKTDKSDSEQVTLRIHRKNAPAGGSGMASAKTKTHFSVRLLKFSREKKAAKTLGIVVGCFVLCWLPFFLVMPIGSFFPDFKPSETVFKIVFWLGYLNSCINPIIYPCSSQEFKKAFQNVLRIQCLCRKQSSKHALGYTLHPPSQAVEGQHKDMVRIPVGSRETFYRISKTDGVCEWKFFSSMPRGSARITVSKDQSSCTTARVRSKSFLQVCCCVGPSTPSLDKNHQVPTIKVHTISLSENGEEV

[9] = target: Histamine H4 receptor (Homo sapiens) (UniProt Q9H3N8); conditions: Compound concentration 10.0 uM
[10] = target: Adenosine Transporter (Cavia porcellus) (UniProt H0V4R7+H0UUG1+H0V3Z5); experiment: Inhibition of Transporter, Adenosine at compound concentration of 10.0 uM in the Eurofins-Panlabs radioligand binding assay (Eurofins_assay_202000); assay type: protein assay; set-up: ligand concentration 0.5 nM, non-specific ligand with concentration 5 uM Nitrobenzylthioinosine, incubation time 30 min, incubation temperature 25 C; conditions: Compound concentration 10.0 uM
[11] = target: Adenosine receptor A3 (Homo sapiens) (UniProt P0DMS8); conditions: Compound concentration 10.0 uM
Chain of Adenosine receptor A3 (Homo sapiens) (P0DMS8 whole entry): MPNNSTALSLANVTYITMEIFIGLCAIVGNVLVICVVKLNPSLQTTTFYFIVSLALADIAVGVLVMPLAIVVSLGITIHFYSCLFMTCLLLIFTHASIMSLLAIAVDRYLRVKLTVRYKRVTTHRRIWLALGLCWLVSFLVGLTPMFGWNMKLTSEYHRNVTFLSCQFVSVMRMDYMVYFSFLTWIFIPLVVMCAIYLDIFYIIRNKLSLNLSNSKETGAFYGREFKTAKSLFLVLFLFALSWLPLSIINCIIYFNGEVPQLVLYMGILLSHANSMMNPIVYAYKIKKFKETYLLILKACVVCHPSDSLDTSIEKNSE

[12] = target: Transient receptor potential cation channel subfamily A member 1 (Homo sapiens, UniProt O75762); experiment: Ephys (human TRPA1)
[13] = target: D(2) dopamine receptor (Homo sapiens) (UniProt P14416); conditions: Compound concentration 10.0 uM
Chain of D(2) dopamine receptor (Homo sapiens) (P14416 whole entry): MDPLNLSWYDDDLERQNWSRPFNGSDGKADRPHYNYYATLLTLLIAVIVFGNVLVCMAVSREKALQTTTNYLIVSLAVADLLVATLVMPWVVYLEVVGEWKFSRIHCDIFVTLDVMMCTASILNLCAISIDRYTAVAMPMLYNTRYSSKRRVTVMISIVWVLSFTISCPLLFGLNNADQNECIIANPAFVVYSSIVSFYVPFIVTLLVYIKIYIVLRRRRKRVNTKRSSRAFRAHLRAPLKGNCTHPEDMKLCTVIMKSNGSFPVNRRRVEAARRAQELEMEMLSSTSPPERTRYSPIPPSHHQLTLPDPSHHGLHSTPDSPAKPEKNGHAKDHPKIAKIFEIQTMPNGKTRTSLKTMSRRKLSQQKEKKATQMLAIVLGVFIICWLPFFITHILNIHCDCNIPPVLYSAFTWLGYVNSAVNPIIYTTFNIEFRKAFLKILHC

[14] = target: Potassium channel subfamily K member 9 (Homo sapiens, UniProt Q9NPC2); experiment: Selectivity screen (KCNK9)
[15] = target: T2, Muscarinic acetylcholine receptor M2 (Homo sapiens) (UniProt P08172); conditions: Compound concentration 10.0 uM
T2 sequence (whole entry): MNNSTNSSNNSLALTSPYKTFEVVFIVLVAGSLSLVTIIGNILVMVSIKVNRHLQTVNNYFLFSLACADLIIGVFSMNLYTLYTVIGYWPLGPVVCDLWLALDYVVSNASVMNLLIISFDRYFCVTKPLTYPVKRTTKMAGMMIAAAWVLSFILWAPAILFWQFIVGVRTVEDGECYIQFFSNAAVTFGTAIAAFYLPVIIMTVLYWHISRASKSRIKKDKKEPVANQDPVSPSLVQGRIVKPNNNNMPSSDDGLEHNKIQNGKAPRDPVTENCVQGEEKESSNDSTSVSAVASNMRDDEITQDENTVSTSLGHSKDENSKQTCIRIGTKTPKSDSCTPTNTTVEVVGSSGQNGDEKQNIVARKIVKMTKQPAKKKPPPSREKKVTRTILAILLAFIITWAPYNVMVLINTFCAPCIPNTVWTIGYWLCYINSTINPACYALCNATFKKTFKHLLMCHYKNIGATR

[16] = target: Type-1 angiotensin II receptor (Homo sapiens) (UniProt P30556); conditions: Compound concentration 10.0 uM
[17] = target: Sodium-dependent dopamine transporter (Homo sapiens, UniProt Q01959); conditions: Compound concentration 10.0 uM
Chain of Sodium-dependent dopamine transporter (Q01959 whole entry): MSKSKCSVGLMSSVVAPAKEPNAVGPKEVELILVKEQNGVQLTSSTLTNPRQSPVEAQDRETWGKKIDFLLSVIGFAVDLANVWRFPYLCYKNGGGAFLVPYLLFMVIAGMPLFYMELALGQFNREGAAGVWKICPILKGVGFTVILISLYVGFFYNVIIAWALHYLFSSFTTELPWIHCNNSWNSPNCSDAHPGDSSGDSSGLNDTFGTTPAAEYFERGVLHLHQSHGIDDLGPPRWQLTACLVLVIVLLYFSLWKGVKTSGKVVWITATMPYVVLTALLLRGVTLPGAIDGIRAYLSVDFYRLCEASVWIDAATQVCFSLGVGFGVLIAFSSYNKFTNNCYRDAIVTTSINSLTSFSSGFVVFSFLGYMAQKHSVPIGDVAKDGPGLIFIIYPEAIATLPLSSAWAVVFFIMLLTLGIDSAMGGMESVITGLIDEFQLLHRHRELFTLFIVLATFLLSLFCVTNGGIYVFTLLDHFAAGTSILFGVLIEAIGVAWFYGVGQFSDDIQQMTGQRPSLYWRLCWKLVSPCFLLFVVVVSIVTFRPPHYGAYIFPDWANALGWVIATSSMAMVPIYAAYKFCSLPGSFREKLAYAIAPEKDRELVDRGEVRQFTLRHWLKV

Progesterone receptor = Progesterone receptor (Homo sapiens, UniProt P06401); experiment: Inhibition of Progesterone PR-B at compound concentration of 10.0 uM in the Eurofins-Panlabs radioligand binding assay (Eurofins_assay_299005); set-up: ligand concentration 0.5 nM, non-specific ligand with concentration 1 uM R5020, incubation time 20 h, incubation temperature 4 C
Chain of Progesterone receptor (P06401 whole entry): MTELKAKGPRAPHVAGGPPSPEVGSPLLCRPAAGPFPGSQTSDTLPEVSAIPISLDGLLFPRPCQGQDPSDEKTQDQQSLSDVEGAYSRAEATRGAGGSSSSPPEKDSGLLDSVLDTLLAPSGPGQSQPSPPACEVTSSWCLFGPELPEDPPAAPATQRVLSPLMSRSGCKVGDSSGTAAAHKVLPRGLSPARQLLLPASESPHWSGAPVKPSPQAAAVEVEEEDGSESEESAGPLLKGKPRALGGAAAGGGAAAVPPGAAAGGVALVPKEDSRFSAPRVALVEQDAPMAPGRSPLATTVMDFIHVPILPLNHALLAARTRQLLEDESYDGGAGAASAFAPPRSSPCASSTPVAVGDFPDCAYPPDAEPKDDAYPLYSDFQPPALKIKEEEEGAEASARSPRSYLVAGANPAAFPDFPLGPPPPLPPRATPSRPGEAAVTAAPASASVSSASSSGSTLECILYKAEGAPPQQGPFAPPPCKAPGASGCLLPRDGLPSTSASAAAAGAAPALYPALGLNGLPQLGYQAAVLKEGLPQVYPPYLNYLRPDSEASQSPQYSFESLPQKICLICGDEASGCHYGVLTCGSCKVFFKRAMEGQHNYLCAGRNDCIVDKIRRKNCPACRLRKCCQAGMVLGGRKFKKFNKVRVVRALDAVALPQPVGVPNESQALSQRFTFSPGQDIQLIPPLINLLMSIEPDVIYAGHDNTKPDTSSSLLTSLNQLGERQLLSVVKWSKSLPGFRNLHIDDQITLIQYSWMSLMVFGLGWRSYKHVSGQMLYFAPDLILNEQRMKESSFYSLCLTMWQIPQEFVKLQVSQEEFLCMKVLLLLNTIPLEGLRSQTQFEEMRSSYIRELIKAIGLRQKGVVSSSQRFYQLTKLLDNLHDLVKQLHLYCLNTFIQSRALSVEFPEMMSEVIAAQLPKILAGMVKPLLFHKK

[18] = target: Alpha-2B adrenergic receptor (Homo sapiens) (UniProt P18089); conditions: Compound concentration 10.0 uM
[19] = target: 5-hydroxytryptamine receptor 2B (Homo sapiens) (UniProt P41595); conditions: Compound concentration 10.0 uM
Chain of 5-hydroxytryptamine receptor 2B (Homo sapiens) (P41595 whole entry): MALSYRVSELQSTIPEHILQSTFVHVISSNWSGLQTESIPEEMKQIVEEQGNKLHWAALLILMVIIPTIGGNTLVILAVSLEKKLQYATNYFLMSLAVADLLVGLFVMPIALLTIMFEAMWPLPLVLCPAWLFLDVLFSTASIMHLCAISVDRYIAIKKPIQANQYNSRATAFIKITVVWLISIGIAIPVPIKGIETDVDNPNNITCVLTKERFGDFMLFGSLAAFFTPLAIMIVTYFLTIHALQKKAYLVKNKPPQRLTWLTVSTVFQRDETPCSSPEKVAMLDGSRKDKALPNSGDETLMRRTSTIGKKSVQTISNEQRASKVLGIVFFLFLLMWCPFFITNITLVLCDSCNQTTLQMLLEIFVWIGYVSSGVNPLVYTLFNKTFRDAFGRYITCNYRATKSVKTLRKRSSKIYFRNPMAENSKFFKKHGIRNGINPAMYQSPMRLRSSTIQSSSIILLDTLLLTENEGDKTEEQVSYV

[20] = target: D(1B) dopamine receptor (Homo sapiens) (UniProt P21918); conditions: Compound concentration 10.0 uM
[21] = target: Glutamate NMDA receptor (Rattus norvegicus) (UniProt P35439+Q00959+Q00960+Q00961+Q62645+Q8VHN2+Q9R1M7); conditions: Compound concentration 10.0 uM
Histamine H2 receptor = Histamine H2 receptor (Homo sapiens, UniProt P25021); experiment: GPCRScan assay: inhibition of H2; set-up: radioligand conc. used [nm] 0.02 – 0.05, parental cells Stable HEK
[22] = target: Histamine H3 receptor (Homo sapiens) (UniProt Q9Y5N1); conditions: Compound concentration 10.0 uM
Chain of Histamine H3 receptor (Homo sapiens) (Q9Y5N1 whole entry): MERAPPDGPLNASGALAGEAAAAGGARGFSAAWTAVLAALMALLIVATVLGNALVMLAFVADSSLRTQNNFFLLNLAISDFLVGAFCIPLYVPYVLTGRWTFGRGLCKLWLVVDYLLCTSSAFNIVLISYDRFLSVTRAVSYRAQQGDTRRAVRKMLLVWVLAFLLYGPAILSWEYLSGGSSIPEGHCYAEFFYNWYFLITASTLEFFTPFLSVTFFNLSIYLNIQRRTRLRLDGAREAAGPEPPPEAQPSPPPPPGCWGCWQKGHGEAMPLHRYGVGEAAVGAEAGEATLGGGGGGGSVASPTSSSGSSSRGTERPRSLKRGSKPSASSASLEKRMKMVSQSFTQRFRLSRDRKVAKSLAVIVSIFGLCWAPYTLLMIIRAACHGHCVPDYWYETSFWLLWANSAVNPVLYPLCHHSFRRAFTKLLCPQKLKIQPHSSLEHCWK

Structure (SMILES): O[C@]1(C(F)(F)F)CCCC[C@H]1Nc1ccc(F)cc1 [BAY-390]
- inhibition [1]: -6%
- inhibition [2]: 3%
- IC50 (Estrogen receptor): 2.5 µM
- Ki (Estrogen receptor): 0.72 µM
- inhibition [3]: -6%
- inhibition [4]: -4%
- inhibition [5]: -7.74%
- inhibition [6]: 7%
- inhibition [7]: 13%
- inhibition [8]: 18%
- inhibition [9]: 15.6%
- inhibition [10]: -2%
- inhibition [11]: 4%
- IC50 [12]: 0.082 µM (active)
- inhibition [13]: 12%
- IC50 [14]: > 25 µM (not active)
- inhibition [15]: -2%
- inhibition [16]: 4%
- inhibition [17]: 56.5%
- IC50 (Progesterone receptor): 5 µM
- Ki (Progesterone receptor): 4 µM
- inhibition [18]: 2%
- inhibition [19]: -4%
- inhibition [20]: 30.2%
- inhibition [21]: 9%

- Ki (Histamine H2 receptor): 9.78 µM
- inhibition [22]: -2.34%
Structure (SMILES): COc1cc(N[C@@H]2CCCC[C@]2(O)C(F)(F)F)ccc1F [BAY-9897]
